Values after ≈ are worked out from the molar mass of the structure shown. Where two headings read alike, the source gives them in different places.
Tests used:
ECM6006 aph(3′)-III = assay: microbe, parasite or virus in culture; format: cell-based, Escherichia coli; details: Escherichia coli, read-out: Compound MIC on Bacterial Strains: ECM6006 aph(3′)-III
Summary of the method: (§1)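 MICs came from optical density at 600 nm after 18 hours at 35° C, with visual confirmation. Compounds were serially diluted 2-fold in cation-adjusted Mueller Hinton broth and inoculated at 5×10^5 CFU/ml following CLSI guidelines.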

ECM6009 aac(3)-II = assay: microbe, parasite or virus in culture; format: cell-based, Escherichia coli; details: Escherichia coli, read-out: Compound MIC on Bacterial Strains: ECM6009 aac(3)-II
Summary of the method: as §1

ECM6010 ant(2″)-I = assay: microbe, parasite or virus in culture; format: cell-based, Escherichia coli; details: Escherichia coli, read-out: Compound MIC on Bacterial Strains: ECM6010 ant(2″)-I
Summary of the method: as §1

ECM6011 aph(3′)-I = assay: microbe, parasite or virus in culture; format: cell-based, Escherichia coli; details: Escherichia coli, read-out: Compound MIC on Bacterial Strains: ECM6011 aph(3′)-I
Summary of the method: as §1

ECM6003 rmtB = assay: microbe, parasite or virus in culture; format: cell-based, Escherichia coli; details: Escherichia coli; Table 3; read-out: Compound MIC on Bacterial Strains: ECM6003 rmtB
Summary of the method: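 Broth microdilution per CLSI M7-A7 in cation-adjusted Mueller Hinton broth with 2-fold serial dilutions and 5×10^5 CFU/ml inoculum. Incubated 18 hours at 35 °C; MIC read by turbidity at 600 nm and confirmed visually.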

EC1002 aph(3′)-IV = assay: organism not typed; format: cell-based; details: read-out: Compound MIC on Bacterial Strains: EC1002 aph(3′)-IV
Summary of the method: as §1

EC1001 acc(6′)-Ib = assay: microbe, parasite or virus in culture; format: cell-based, Escherichia coli; details: Escherichia coli; Table 4; read-out: Compound MIC on Bacterial Strains: Escherichia coli EC1001 acc(6′)-Ib
Summary of the method: (§2)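 MICs came from well turbidity at 600 nm, checked by eye, after 18 hours at 35° C. Bacteria at a final 5×10^5 CFU/ml were exposed to 2-fold dilution series in cation-adjusted Mueller Hinton broth following CLSI methods.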

[1] = test system: ECM6007 aac(6′) + aph(2″); assay: microbe, parasite or virus in culture; format: cell-based, Escherichia coli; details: Escherichia coli, 18 h; Table 4; read-out: Compound MIC on Bacterial Strains: Escherichia coli ECM6007 aac(6′) + aph(2″)
Summary of the method: as §2

ACM1005 ATCC 19004 = assay: MIC, broth microdilution; format: cell-based, Acinetobacter baumannii; details: Acinetobacter baumannii, ATCC19004; Table 4; read-out: Compound MIC on Bacterial Strains: Acinetobacter baumannii ACM1005 ATCC 19004
Summary of the method: as §2

ACM1006 acc(6′)-Ib = assay: microbe, parasite or virus in culture; format: cell-based, Acinetobacter baumannii; details: Acinetobacter baumannii; Table 4; read-out: Compound MIC on Bacterial Strains: Acinetobacter baumannii ACM1006 acc(6′)-Ib
Summary of the method: as §2

PAM3072 aac(6′)-II = assay: microbe, parasite or virus in culture; format: cell-based, Pseudomonas aeruginosa; details: Pseudomonas aeruginosa, Table 5; read-out: Compound MIC on Bacterial Strains: Pseudomonas aeruginosa PAM3072 aac(6′)-II
Summary of the method: as §2

PAM3073 aac(6′)-I = assay: microbe, parasite or virus in culture; format: cell-based, Pseudomonas aeruginosa; details: Pseudomonas aeruginosa, Table 5; read-out: Compound MIC on Bacterial Strains: Pseudomonas aeruginosa PAM3073 aac(6′)-I
Summary of the method: as §2

Sa 287 aac(6′) + aph(2″) = assay: microbe, parasite or virus in culture; format: cell-based, Staphylococcus aureus; details: Staphylococcus aureus, 18 h; Table 5; read-out: Compound MIC on Bacterial Strains: Staphylococcus aureus Sa 287 aac(6′) + aph(2″)
Method: To compare microbiological activity of the test compounds, minimum inhibitory concentrations (MIC.s) were determined. Antibiotic MICs were obtained using the broth microdilution method according to Clinical and Laboratory Standards Institute (CLSI) approved guidelines (Methods for dilution antimicrobial susceptibility tests for bacteria that grow aerobically; approved standard—7th ed. CLSI document M7-A7. Clinical and Laboratory Standards Institute, Wayne, Pa., incorporated herein by reference in its entirety). Antibiotics were dissolved as specified by CLSI (Performance standards for antimicrobial susceptibility testing; Seventeenth informational supplement. CLSI document M100-S17. Clinical and Laboratory Standards Institute, Wayne, Pa., incorporated herein by reference in its entirety), and were serially diluted 2-fold in cation adjusted Mueller Hinton Broth (CaMHB) at 2× concentration. Bacterial inoculums were prepared in CaMHB by suspension of a colony from an agar plate that was prepared the previous day to obtain a final concentration of 5×10^5CFU/ml. The plates were incubated for 18 hours at 35° C. […] MIC.s were determined by reading the turbidity of plate wells using a SpectraMax Plus384 plate reader (Molecular Devices, Sunnyvale, Calif., USA) at 600 nm and were confirmed by visual inspection.

[2] = test system: Escherichia coli (ATCC 25922); assay: MIC, broth microdilution; details: Escherichia coli
[3] = test system: Staphylococcus aureus (ATCC 29213); assay: MIC, broth microdilution; details: Staphylococcus aureus
[4] = test system: Klebsiella pneumonia (ATCC 43816); assay: MIC, broth microdilution; details: Klebsiella pneumoniae, ATCC43816, read-out: Compound MIC on Bacterial Strains: K. pneumonia ATCC 43816
[5] = test system: Pseudomonas aeruginosa (ATCC 27853); assay: MIC, broth microdilution; details: Pseudomonas aeruginosa
[6] = test system: Acinetobacter baumannii (ATCC 19606); assay: MIC, broth microdilution; details: Acinetobacter baumannii, ATCC19606, read-out: Compound MIC on Bacterial Strains: A. baumannii ATCC 19606
rats = assay: Nephrotoxicity of test compounds in rats; details: once daily subcutaneous
[7] = ATCC25922, read-out: Compound MIC on Bacterial Strains: E. coli ATCC 25922
[8] = ATCC25922, read-out: Compound MIC on Bacterial Strains: ECM6000 ATCC 25922
[9] = ATCC25922, read-out: Compound MIC on Bacterial Strains: Escherichia coli ECM6000 ATCC 25922
[10] = ATCC29213, read-out: Compound MIC on Bacterial Strains: S. aureus ATCC 29213, QC strain, Table 2
[11] = ATCC29213, read-out: Compound MIC on Bacterial Strains: Staphylococcus aureus SAM1000 ATCC 29213, Table 5
[12] = ATCC27853, read-out: Compound MIC on Bacterial Strains: P. aeruginosa ATCC 27853
[13] = ATCC27853, read-out: Compound MIC on Bacterial Strains: Pseudomonas aeruginosa PAM3034 ATCC 27853

| Compound | MIC (ECM6006 aph(3′)-III) [µg/mL] | MIC (ECM6009 aac(3)-II) [µg/mL] | MIC (ECM6010 ant(2″)-I) [µg/mL] | MIC (ECM6011 aph(3′)-I) [µg/mL] | MIC (ECM6003 rmtB) [µg/mL] | MIC (EC1002 aph(3′)-IV) [µg/mL] | MIC (EC1001 acc(6′)-Ib) [µg/mL] | MIC [1] [µg/mL] | MIC (ACM1005 ATCC 19004) [µg/mL] | MIC (ACM1006 acc(6′)-Ib) [µg/mL] | MIC (PAM3072 aac(6′)-II) [µg/mL] | MIC (PAM3073 aac(6′)-I) [µg/mL] | MIC (Sa 287 aac(6′) + aph(2″)) [µg/mL] | MIC [2, 7] [µg/mL] | MIC [2, 8] [µg/mL] | MIC [2, 9] [µg/mL] | MIC [3, 10] [µg/mL] | MIC [3, 11] [µg/mL] | MIC [4] [µg/mL] | MIC [5, 12] [µg/mL] | further results |
| --- | --- | --- | --- | --- | --- | --- | --- | --- | --- | --- | --- | --- | --- | --- | --- | --- | --- | --- | --- | --- | --- |
| CN[C@@H]1[C@@H](O)[C@@H](O[C@@H]2[C@@H](O)[C@H](O[C@H]3O[C@H](CNCCO)CC[C@H]3N)[C@@H](N)C[C@H]2NC(=O)[C@@H](O)CCN)OC[C@]1(C)O [Compound 1, (2S)-4-amino-N-((1R,2S,3S,4R,5S)-5-amino-4-((2R,3R,6S)-3-amino-6-((2-hydroxyethylamino)methyl)tetrahydro-2H-pyran-2-yloxy)-2-((2R,3R,5R)-3,5-dihydroxy-5-methyl-4-(methylamino)tetrahydro-2H-pyran-2-yloxy)-3-hydroxycyclohexyl)-2-hydroxybutanamide] | 1 to 8 (≈ 1.68 to 13.5 µM) | < 1 | < 1 | < 1 | > 8 | < 1 | < 1 | < 1 | < 1 | < 1 | > 8 | 1 to 8 (≈ 1.68 to 13.5 µM) | 1 to 8 | < 1 | < 1 | < 1 | < 1 | < 1 | < 1 | 1 to 8 (≈ 1.68 to 13.5 µM) | MIC [5, 13]: 1 to 8 µg/mL (≈ 1.68 to 13.5 µM); MIC [6]: > 8 µg/mL; Histopathology Results After 7 days of Dosing (rats; 10 mg/kg/day): No Change; Histopathology Results After 14 days of Dosing (rats; 10 mg/kg/day): No Change; Histopathology Results After 7 days of Dosing (rats; 30 mg/kg/day): Mild Nephrosis; Histopathology Results After 14 days of Dosing (rats; 30 mg/kg/day): Moderate to Severe Nephrosis; Histopathology Results After 7 days of Dosing (rats; 100 mg/kg/day): Severe Nephrosis; Histopathology Results After 14 days of Dosing (rats; 100 mg/kg/day): 4/4 Died |
| CN[C@@H]1[C@@H](O)[C@@H](O[C@@H]2[C@@H](O)[C@H](O[C@H]3O[C@H](CNCCO)CC[C@H]3N)[C@@H](N)C[C@H]2NC(=O)[C@@H](O)CN)OC[C@]1(C)O [Compound 2, (S)-3-amino-N-((1R,2S,3S,4R,5S)-5-amino-4-((2R,3R,6S)-3-amino-6-((2-hydroxyethylamino)methyl)tetrahydro-2H-pyran-2-yloxy)-2-((2R,3R,4R,5R)-3,5-dihydroxy-5-methyl-4-(methylamino)tetrahydro-2H-pyran-2-yloxy)-3-hydroxycyclohexyl)-2-hydroxypropanamide] | < 1 | < 1 | < 1 | < 1 | > 8 | 1 to 8 (≈ 1.72 to 13.8 µM) | < 1 | < 1 | 1 to 8 (≈ 1.72 to 13.8 µM) | 1 to 8 (≈ 1.72 to 13.8 µM) | > 8 | 1 to 8 (≈ 1.72 to 13.8 µM) | < 1 | < 1 | < 1 | < 1 | < 1 | < 1 | < 1 | 1 to 8 (≈ 1.72 to 13.8 µM) | MIC [5, 13]: 1 to 8 µg/mL (≈ 1.72 to 13.8 µM); MIC [6]: > 8 µg/mL; Histopathology Results After 7 days of Dosing (rats; 10 mg/kg/day): Minimal Tubular Eosinophilia;; Histopathology Results After 14 days of Dosing (rats; 10 mg/kg/day): No change; Histopathology Results After 7 days of Dosing (rats; 30 mg/kg/day): Minimal Tubular Eosinophilia;; Histopathology Results After 14 days of Dosing (rats; 30 mg/kg/day): Minimal to Mild Dilatation; Histopathology Results After 7 days of Dosing (rats; 100 mg/kg/day): Mild Tubular Eosinophila; Histopathology Results After 14 days of Dosing (rats; 100 mg/kg/day): No Deaths; Moderate to Severe |

From US8906868B2, “Aminoglycoside derivatives” (Rempex Pharmaceuticals, Inc., priority 2010, dated 2014)
